# US9113629B2, “4-amino-6-(4-substituted-phenyl)-picolinates and 6-amino-2-(4-substituted-phenyl)-pyrimidine-4-carboxylates and their use as herbicides” (DOW AGROSCIENCES LLC, priority 2013, dated 2015)
# Like-named read-outs stand apart in the source and are kept apart here.
# Legend:
# [1] = test system: Key Broadleaf Weed and Crop Species; assay: Post-emergent Test II herbicidal activity (Table 5); assay type: in vivo; details: post-emergence, 336 h, post-emergent, 14 days after application; for pest or weed control at 70 g/ha: 70 g ai/ha; for pest or weed control at 140 g/ha: 140 g ai/ha
# Procedure, shortened: (§1)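 Foliar application at 187 L/ha to greenhouse-grown seedlings (first or second true leaf); subirrigation thereafter. Visual 0–100% injury at 14 d relative to untreated plants.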
# [2] = test system: Key Grass and Sedge Weeds as well as Grass Crops; assay: Post-emergent Test II herbicidal activity (Table 6); assay type: in vivo; details: post-emergence, 336 h; for pest or weed control at 70 g/ha: application rate 70 g ai/ha; for pest or weed control at 140 g/ha: application rate 140 g ai/ha
# Procedure, shortened: as §1
# [3] = ABUTH: velvetleaf (Abutilon theophrasti), read-out: Visual Growth Reduction (%) 14 Days After Application ABUTH
# [4] = AMARE: redroot pigweed (Amaranthus retroflexus), read-out: Visual Growth Reduction (%) 14 Days After Application AMARE
# [5] = BRSNN: oilseed-rape, canola (Brassica napus), read-out: Visual Growth Reduction (%) 14 Days After Application BRSNN
# [6] = CHEAL: lambsquarters (Chenopodium album), read-out: Visual Growth Reduction (%) 14 Days After Application CHEAL
# [7] = EPHHL: wild poinsettia (Euphorbia heterophylla), read-out: Visual Growth Reduction (%) 14 Days After Application EPHHL
# [8] = HELAN: sunflower (Helianthus annuus), read-out: Visual Growth Reduction (%) 14 Days After Application HELAN
# [9] = VIOTR: wild pansy (Viola tricolor), read-out: Visual Growth Reduction (%) 14 Days After Application VIOTR
# [10] = CYPES: yellow nutsedge (Cyperus esculentus), read-out: Visual Growth Reduction (%) 14 Days After Application, CYPES
# [11] = DIGSA: crabgrass (Digitaria sanguinalis), read-out: Visual Growth Reduction (%) 14 Days After Application, DIGSA
# [12] = ECHCG: barnyardgrass (Echinochloa crus-galli), read-out: Visual Growth Reduction (%) 14 Days After Application, ECHCG
# [13] = ORYSA: rice (Oryza sativa), read-out: Visual Growth Reduction (%) 14 Days After Application, ORYSA
# [14] = SETFA: giant foxtail (Setaria faberi), read-out: Visual Growth Reduction (%) 14 Days After Application, SETFA
# [15] = SORVU: grain sorghum (Sorghum vulgare), read-out: Visual Growth Reduction (%) 14 Days After Application, SORVU
# [16] = TRZSS (wheat, Triticum aestivum), read-out: Visual Growth Reduction (%) 14 Days After Application, TRZSS
# [17] = ZEAMX: maize, corn (Zea mays), read-out: Visual Growth Reduction (%) 14 Days After Application, ZEAMX
compound,measurement,setting,value
COC(=O)c1nc(-c2cc(F)c(C#N)cc2F)c(F)c(N)c1Cl [Compound 198],pest or weed control at 70 g/ha,[1]; [3],60 to 74%
same,pest or weed control at 140 g/ha,[1]; [3],75 to 84%
same,pest or weed control at 70 g/ha,[1]; [4],60 to 74%
same,pest or weed control at 140 g/ha,[1]; [4],95 to 100%
same,pest or weed control at 70 g/ha,[1]; [5],75 to 84%
same,pest or weed control at 140 g/ha,[1]; [5],75 to 84%
same,pest or weed control at 70 g/ha,[1]; [6],85 to 94%
same,pest or weed control at 140 g/ha,[1]; [6],95 to 100%
same,pest or weed control at 70 g/ha,[1]; [7],45 to 59%
same,pest or weed control at 140 g/ha,[1]; [7],60 to 74%
same,pest or weed control at 70 g/ha,[1]; [8],95 to 100%
same,pest or weed control at 140 g/ha,[1]; [8],95 to 100%
same,pest or weed control at 70 g/ha,[1]; [9],30 to 44%
same,pest or weed control at 140 g/ha,[1]; [9],60 to 74%
same,pest or weed control at 70 g/ha,[2]; [10],60 to 74%
same,pest or weed control at 140 g/ha,[2]; [10],60 to 74%
same,pest or weed control at 70 g/ha,[2]; [11],0 to 29%
same,pest or weed control at 140 g/ha,[2]; [11],0 to 29%
same,pest or weed control at 70 g/ha,[2]; [12],0 to 29%
same,pest or weed control at 140 g/ha,[2]; [12],0 to 29%
same,pest or weed control at 70 g/ha,[2]; [13],0 to 29%
same,pest or weed control at 140 g/ha,[2]; [13],0 to 29%
same,pest or weed control at 70 g/ha,[2]; [14],0 to 29%
same,pest or weed control at 140 g/ha,[2]; [14],0 to 29%
same,pest or weed control at 70 g/ha,[2]; [15],0 to 29%
same,pest or weed control at 140 g/ha,[2]; [15],0 to 29%
same,pest or weed control at 70 g/ha,[2]; [16],30 to 44%
same,pest or weed control at 140 g/ha,[2]; [16],45 to 59%
same,pest or weed control at 70 g/ha,[2]; [17],0 to 29%
same,pest or weed control at 140 g/ha,[2]; [17],0 to 29%
